In US9931347B2, “Pharmaceutical compound” (IOmet Pharma Ltd., priority 2013, dated 2018):

What was measured:
Recombinant human IDO = Recombinant human IDO (Homo sapiens, UniProt P14902); experiment: hIDO biochemical coupled assay; conditions: 45 μM L-tryptophan, coupled with kynurenine formamidase
Protocol: (§1) Exemplary compounds of the invention were prepared, and tested to determine their effect as TDO and/or IDO inhibitors. Two different assays were employed: 1. a cell-based assay for detecting the effect of test compounds on kynurenine production in two different cancer cell types. This assay utilised cancer cells which expressed either TDO or IDO and as such was used as a means of testing compound activity at these two enzymes in a cell-based context. 2. a TDO and IDO biochemical coupled assay which utilised recombinantly produced and purified TDO and IDO enzymes in combination with the enzyme formamidase. This coupled enzyme system allowed conversion of N-formylkynurenine produced by TDO or IDO activity to kynurenine which was then quantified by fluorescence following addition of Erhlich's Reagent The protocols for these are set out below.
Recombinant human IDO or TDO was incubated in 50 mM KPO4 (pH 7.0), 0.5 mM EGTA, 0.5 mM EDTA, 0.05% Triton™ X100, 20 mM ascorbate, 10 μM methylene blue, 500 U/ml catalase, 50 μg/ml KynB (kynurenine formamidase).

Recombinant human TDO = Recombinant human TDO (Homo sapiens, UniProt P48775); experiment: hTDO biochemical coupled assay; conditions: 330 μM L-tryptophan, coupled with kynurenine formamidase
Protocol: as §1
Recombinant human IDO or TDO was incubated in 50 mM KPO4 (pH 7.0), 0.5 mM EGTA, 0.5 mM EDTA, 0.05% Triton™ X100, 20 mM ascorbate, 10 μM methylene blue, 500 U/ml catalase, 50 μg/ml KynB (kynurenine formamidase). TDO assays were carried out in the presence of 330 μM L-tryptophan, while IDO assays had the addition of 45 μM L-tryptophan. After incubation for 17 minutes at room temperature the reactions were stopped by the addition of Erhlich's reagent and incubated at room temperature for 5 minutes before the fluorescence was read (Ex475, Em530).

[1] = molecular target: T1, TDO (A172 human glioblastoma cells) (Homo sapiens, UniProt P48775); experiment: A172 Kynurenine cell based assay; conditions: 500 μM L-tryptophan, 48 hours, kynurenine by Erhlich's reagent
T1 construct: This assay utilised cancer cells which expressed either TDO or IDO; endogenous in cells; host or cells: A172 human glioblastoma cells
Procedure, shortened: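 A172 glioblastoma cells (30,000/well) cultured at 37° C. in phenol red-free RPMI with 10% FCS, 2 mM L-glutamine and 500 μM L-tryptophan, with or without test compound. After 48 hours, kynurenine in the supernatant was read with Erhlich's reagent (5 min) as absorbance at 490 nm.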

[2] = molecular target: T2, IDO (SKOV3 human ovarian adenocarcinoma cells, IFN-γ induced) (Homo sapiens, UniProt P14902); experiment: SKOV3 Kynurenine cell based assay; conditions: IDO induced by 500 ng/ml IFN-γ, 500 μM L-tryptophan, 48 hours
T2 construct: IDO expression was induced in the SKOV3 cells by the addition of 500 ng/ml IFN-γ; endogenous in cells; host or cells: SKOV3 human ovarian adenocarcinoma cells, induced with IFN-γ
Procedure, shortened: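 IFN-γ (500 ng/ml) induced IDO in SKOV3 cells, seeded at 40,000/well in phenol red-free RPMI with 10% FCS, 2 mM L-glutamine and 500 μM L-tryptophan. Cells were incubated with or without compound at 37° C for 48 h. Supernatant kynurenine was detected with Ehrlich's reagent.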

Chain of Recombinant human IDO (P14902 whole entry): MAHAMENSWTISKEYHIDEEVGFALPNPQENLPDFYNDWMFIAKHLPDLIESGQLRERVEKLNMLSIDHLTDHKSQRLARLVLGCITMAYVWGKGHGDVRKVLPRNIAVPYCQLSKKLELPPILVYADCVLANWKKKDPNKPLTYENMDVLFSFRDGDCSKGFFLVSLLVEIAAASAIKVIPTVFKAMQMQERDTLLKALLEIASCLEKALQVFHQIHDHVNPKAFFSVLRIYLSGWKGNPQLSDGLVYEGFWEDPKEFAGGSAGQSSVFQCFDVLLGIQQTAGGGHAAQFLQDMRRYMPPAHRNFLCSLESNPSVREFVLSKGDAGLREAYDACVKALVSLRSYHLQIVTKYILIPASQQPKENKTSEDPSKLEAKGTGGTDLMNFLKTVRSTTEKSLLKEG
T2 sequence (P14902 whole entry): as above
Chain of Recombinant human TDO (P48775 whole entry): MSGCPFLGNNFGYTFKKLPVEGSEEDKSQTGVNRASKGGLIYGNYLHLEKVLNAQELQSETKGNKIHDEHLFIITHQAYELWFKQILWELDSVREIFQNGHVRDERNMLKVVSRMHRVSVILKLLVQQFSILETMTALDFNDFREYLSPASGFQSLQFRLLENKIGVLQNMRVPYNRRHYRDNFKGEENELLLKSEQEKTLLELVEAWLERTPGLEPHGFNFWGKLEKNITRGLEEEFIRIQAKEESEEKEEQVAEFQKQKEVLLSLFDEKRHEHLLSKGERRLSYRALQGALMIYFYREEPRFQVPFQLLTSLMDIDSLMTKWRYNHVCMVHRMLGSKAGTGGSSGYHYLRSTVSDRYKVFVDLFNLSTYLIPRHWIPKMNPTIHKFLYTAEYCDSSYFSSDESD
T1 sequence (P48775 whole entry): as above

Row | hIDO biocehmical assay pIC50 (Recombinant human IDO) | hTDO biochemical assay pIC50 (Recombinant human TDO) | A172 Kynurenine cell based assay pIC50 [1] | SKOV3 Kynurenine cell based assay pIC50 [2] | Structure (SMILES)
1 | +− (+− = pIC50 <4.00) | +− (+− = pIC50 <4.00) | +− (+− = pIC50 <4.00) | + (+ = pIC50 4.00-4.99) | Cc1cc(C(=O)N2CCC(c3c(C)[nH]c4ccccc34)CC2)no1 [Compound 8]
2 | +− (+− = pIC50 <4.00) | +− (+− = pIC50 <4.00) | + (+ = pIC50 4.00-4.99) | + (+ = pIC50 4.00-4.99) | Cc1ccc(S(=O)(=O)N2CCC(c3c[nH]c4ccccc34)CC2)cc1 [Compound 9]
3 | +− (+− = pIC50 <4.00) | +− (+− = pIC50 <4.00) | + (+ = pIC50 4.00-4.99) | + (+ = pIC50 4.00-4.99) | O=C(c1cccs1)N1CCC(c2c[nH]c3ccccc23)CC1 [Compound 11]
4 | +− (+− = pIC50 <4.00) | +− (+− = pIC50 <4.00) | +− (+− = pIC50 <4.00) | ++ (++ = pIC50 5.00-5.99) | O=S(=O)(c1cccs1)N1CC=C(c2c[nH]c3ncccc23)CC1 [Compound 13]
5 | +− (+− = pIC50 <4.00) | +− (+− = pIC50 <4.00) | + (+ = pIC50 4.00-4.99) | +− (+− = pIC50 <4.00) | Cc1ccc(S(=O)(=O)N2CCC(c3c[nH]c4ccccc34)CC2)c(C)c1 [Compound 14]
6 | +− (+− = pIC50 <4.00) | +− (+− = pIC50 <4.00) | +− (+− = pIC50 <4.00) | + (+ = pIC50 4.00-4.99) | COc1ccc2[nH]cc(C3CCN(C(=O)C(C)C)CC3)c2c1 [Compound 15]
7 | +− (+− = pIC50 <4.00) | +− (+− = pIC50 <4.00) | + (+ = pIC50 4.00-4.99) | +− (+− = pIC50 <4.00) | NC(=O)N1CCC(c2c[nH]c3ccccc23)CC1 [Compound 16]
8 | +− (+− = pIC50 <4.00) | +− (+− = pIC50 <4.00) | +− (+− = pIC50 <4.00) | + (+ = pIC50 4.00-4.99) | Cc1[nH]c2ccccc2c1C1CCN(C(=O)C2CCCO2)CC1 (stereo not shown) [Compound 17]
9 | +− (+− = pIC50 <4.00) | + (+ = pIC50 4.00-4.99) | ++ (++ = pIC50 5.00-5.99) | + (+ = pIC50 4.00-4.99) | CCCCS(=O)(=O)N1CC=C(c2c[nH]c3cc(F)ccc23)CC1 [Compound 18]
10 | +− (+− = pIC50 <4.00) | +− (+− = pIC50 <4.00) | +− (+− = pIC50 <4.00) | + (+ = pIC50 4.00-4.99) | O=C(Cc1cccs1)N1CCC(c2c[nH]c3ccccc23)CC1 [Compound 19]
11 | +− (+− = pIC50 <4.00) | +− (+− = pIC50 <4.00) | + (+ = pIC50 4.00-4.99) | + (+ = pIC50 4.00-4.99) | O=S(=O)(c1ccccc1Br)N1CCC(c2c[nH]c3ccccc23)CC1 [Compound 21]
12 | +− (+− = pIC50 <4.00) | + (+ = pIC50 4.00-4.99) | +++ (+++ = pIC50 ≥6.00) | +− (+− = pIC50 <4.00) | CS(=O)(=O)N1CCC(c2c[nH]c3cc(F)ccc23)CC1 [Compound 22]
13 | +− (+− = pIC50 <4.00) | +− (+− = pIC50 <4.00) | +− (+− = pIC50 <4.00) | + (+ = pIC50 4.00-4.99) | Cc1[nH]c2ccccc2c1C1CCN(S(=O)(=O)c2ccc([N+](=O)[O-])cc2)CC1 [Compound 25]
14 | +− (+− = pIC50 <4.00) | +− (+− = pIC50 <4.00) | +− (+− = pIC50 <4.00) | + (+ = pIC50 4.00-4.99) | O=S(=O)(c1cc(C(F)(F)F)ccc1C(F)(F)F)N1CCC(c2c[nH]c3ccc(F)cc23)CC1 [Compound 26]
15 | +− (+− = pIC50 <4.00) | +− (+− = pIC50 <4.00) | + (+ = pIC50 4.00-4.99) | + (+ = pIC50 4.00-4.99) | COc1ccc(Br)cc1S(=O)(=O)N1CCC(c2c[nH]c3ccc(F)cc23)CC1 [Compound 27]
16 | +− (+− = pIC50 <4.00) | +− (+− = pIC50 <4.00) | +− (+− = pIC50 <4.00) | + (+ = pIC50 4.00-4.99) | Cc1cccc2c(C3CCN(C(=O)c4cc(Cl)cnc4Cl)CC3)c[nH]c12 [Compound 28]
17 | +− (+− = pIC50 <4.00) | +− (+− = pIC50 <4.00) | +− (+− = pIC50 <4.00) | + (+ = pIC50 4.00-4.99) | CCc1cc(Br)ccc1S(=O)(=O)N1CCC(c2c[nH]c3ccc(OC)cc23)CC1 [Compound 29]
18 | +− (+− = pIC50 <4.00) | +− (+− = pIC50 <4.00) | +− (+− = pIC50 <4.00) | + (+ = pIC50 4.00-4.99) | COc1ccc2[nH]cc(C3CCN(S(=O)(=O)c4ccc(Br)cc4OC(F)(F)F)CC3)c2c1 [Compound 30]
19 | +− (+− = pIC50 <4.00) | +− (+− = pIC50 <4.00) | +− (+− = pIC50 <4.00) | + (+ = pIC50 4.00-4.99) | Cc1ccc2[nH]cc(C3CCN(S(=O)(=O)c4cc(C)c(Cl)cc4Cl)CC3)c2c1 [Compound 31]
20 | +− (+− = pIC50 <4.00) | +− (+− = pIC50 <4.00) | +− (+− = pIC50 <4.00) | + (+ = pIC50 4.00-4.99) | Cc1ccc2[nH]cc(C3CCN(S(=O)(=O)c4cccc(Cl)c4C)CC3)c2c1 [Compound 32]
21 | +− (+− = pIC50 <4.00) | +− (+− = pIC50 <4.00) | + (+ = pIC50 4.00-4.99) | + (+ = pIC50 4.00-4.99) | Cc1ccc2[nH]cc(C3CCN(S(=O)(=O)c4ccc(Br)cc4OC(F)(F)F)CC3)c2c1 [Compound 34]
22 | +− (+− = pIC50 <4.00) | +− (+− = pIC50 <4.00) | +− (+− = pIC50 <4.00) | + (+ = pIC50 4.00-4.99) | Cc1ccc2[nH]cc(C3CCN(S(=O)(=O)c4cc(C(F)(F)F)ccc4C(F)(F)F)CC3)c2c1 [Compound 35]
23 | +− (+− = pIC50 <4.00) | +− (+− = pIC50 <4.00) | + (+ = pIC50 4.00-4.99) | ++ (++ = pIC50 5.00-5.99) | Cc1ccc2[nH]cc(C3CCN(S(=O)(=O)c4ccccc4OC(F)(F)F)CC3)c2c1 [Compound 36]
24 | +− (+− = pIC50 <4.00) | +− (+− = pIC50 <4.00) | +− (+− = pIC50 <4.00) | + (+ = pIC50 4.00-4.99) | Cc1cccc2c(C3CCN(S(=O)(=O)c4ccc5c(c4)CN(C(=O)C(F)(F)F)CC5)CC3)c[nH]c12 [Compound 37]

Row | Structure (SMILES) | hIDO biocehmical assay pIC50 (Recombinant human IDO) | hTDO biochemical assay pIC50 (Recombinant human TDO) | A172 Kynurenine cell based assay pIC50 [1] | SKOV3 Kynurenine cell based assay pIC50 [2]
25 | FC(F)(F)CN1CCC(c2c[nH]c3ccccc23)CC1 [Compound 10] | +− (+− = pIC50 <4.00) | +− (+− = pIC50 <4.00) | + (+ = pIC50 4.00-4.99) | +− (+− = pIC50 <4.00)
